Measurements reported in ChEMBL document CHEMBL1147209, “Relationship between quantum-chemical descriptors of proton dissociation and experimental acidity constants of various hydroxylated coumarins. Identification of the biologically active species for xanthine oxidase inhibition” (Eur J Med Chem, 2007).

biological target: Xanthine dehydrogenase/oxidase (Homo sapiens, UniProt P47989); experiment: Inhibition of xanthine oxidase
Sequence (P47989 whole entry): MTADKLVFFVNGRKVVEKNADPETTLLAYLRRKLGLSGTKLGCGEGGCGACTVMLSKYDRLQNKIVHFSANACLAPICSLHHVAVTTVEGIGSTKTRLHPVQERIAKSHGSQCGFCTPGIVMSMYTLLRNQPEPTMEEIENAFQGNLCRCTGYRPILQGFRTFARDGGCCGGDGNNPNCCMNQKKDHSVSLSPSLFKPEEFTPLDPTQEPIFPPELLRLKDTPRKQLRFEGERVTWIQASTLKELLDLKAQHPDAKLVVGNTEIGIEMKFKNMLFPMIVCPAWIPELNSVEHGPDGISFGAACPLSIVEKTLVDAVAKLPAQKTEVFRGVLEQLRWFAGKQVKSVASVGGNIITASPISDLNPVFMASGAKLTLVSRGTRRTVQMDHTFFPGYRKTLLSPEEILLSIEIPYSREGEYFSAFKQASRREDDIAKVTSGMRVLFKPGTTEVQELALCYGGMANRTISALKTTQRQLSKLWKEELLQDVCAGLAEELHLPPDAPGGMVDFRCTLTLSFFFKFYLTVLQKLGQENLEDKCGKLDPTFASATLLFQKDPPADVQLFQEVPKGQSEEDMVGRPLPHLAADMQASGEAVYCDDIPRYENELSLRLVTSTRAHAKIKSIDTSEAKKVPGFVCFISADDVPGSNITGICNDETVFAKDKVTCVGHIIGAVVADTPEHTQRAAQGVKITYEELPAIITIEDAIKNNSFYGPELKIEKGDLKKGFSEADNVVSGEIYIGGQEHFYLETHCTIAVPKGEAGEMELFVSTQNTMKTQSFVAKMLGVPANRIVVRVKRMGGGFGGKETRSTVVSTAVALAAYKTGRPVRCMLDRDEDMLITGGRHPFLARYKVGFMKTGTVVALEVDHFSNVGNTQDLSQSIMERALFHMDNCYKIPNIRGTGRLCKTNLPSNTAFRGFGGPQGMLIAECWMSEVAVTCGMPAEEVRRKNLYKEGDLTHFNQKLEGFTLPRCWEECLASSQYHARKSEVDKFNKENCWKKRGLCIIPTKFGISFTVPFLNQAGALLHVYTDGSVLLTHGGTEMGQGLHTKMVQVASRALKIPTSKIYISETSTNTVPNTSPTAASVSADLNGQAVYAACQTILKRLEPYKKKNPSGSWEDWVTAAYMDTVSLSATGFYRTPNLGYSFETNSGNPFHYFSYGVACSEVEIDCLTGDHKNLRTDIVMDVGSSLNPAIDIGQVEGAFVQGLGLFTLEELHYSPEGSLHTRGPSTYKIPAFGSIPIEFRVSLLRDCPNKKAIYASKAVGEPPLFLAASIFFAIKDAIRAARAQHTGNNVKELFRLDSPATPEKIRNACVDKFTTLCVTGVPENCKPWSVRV

Row | Compound | IC50 | Activity
1 | Cc1cc(=O)oc2cc(O)c(O)cc12 [4-METHYLESCULETIN] | 246 µM | –
2 | O=c1cc(O)c2ccccc2o1 [4-HYDROXYCOUMARINS] | 195 µM | –
3 | O=c1ccc2ccc(O)c(O)c2o1 [DAPHNETIN] | 390 µM | –
4 | COc1cc2ccc(=O)oc2cc1O [SCOPOLETIN] | – | Not Active

Now from value to compound:

Row | IC50 | Activity | Compound
5 | 8.2 µM | – | O=c1ccc2cc(O)c(O)cc2o1 [ESCULETIN]
6 | 236 µM | – | O=c1ccc2ccc(O)cc2o1 [UMBELLIFERONE]
7 | 131 µM | – | O=c1oc2ccccc2cc1O [3-HYDROXYCOUMARIN]
8 | 138 µM | – | COc1cc2oc(=O)ccc2cc1O [ISOSCOPOLETIN]
